Measurements published in ChEMBL document CHEMBL1201862, “PubChem BioAssay data set” (2004).
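Values below derive from 48-hour exposures of cells grown in 96-well plates, with endpoints linearly interpolated between the two concentrations bracketing the appropriate inhibition level. GI50: concentration for 50% inhibition of growth.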 Calls of active or inactive are those of the source. Rule as the data show it: active = GI50 up to about 1.1 µM and inactive = higher.

How the values were obtained:
Assay in all cases: NCI tumour cell line growth inhibition, 48 h
[1] = tested on: 786-0
[2] = tested on: CCRF-CEM
[3] = tested on: COLO 205
[4] = tested on: IGROV-1
[5] = tested on: K562
[6] = tested on: M14
[7] = tested on: NCI-H522
[8] = tested on: OVCAR-4
[9] = tested on: OVCAR-5
[10] = tested on: OVCAR-8
[11] = tested on: RPMI-8226
[12] = tested on: SF-268
[13] = tested on: SK-MEL-28
[14] = tested on: SK-MEL-2
[15] = tested on: SNB-19
[16] = tested on: SW-620
[17] = tested on: MDA-MB-435
[18] = tested on: NCI/ADR-RES
[19] = tested on: PC-3
[20] = tested on: DU-145

| Compound | GI50 [1] | GI50 [2] | GI50 [3] | GI50 [4] | GI50 [5] | GI50 [6] | GI50 [7] | GI50 [8] | GI50 [9] | GI50 [10] | GI50 [11] | GI50 [12] | GI50 [13] | GI50 [14] | GI50 [15] | GI50 [16] | GI50 [17] | GI50 [18] | GI50 [19] | GI50 [20] |
| --- | --- | --- | --- | --- | --- | --- | --- | --- | --- | --- | --- | --- | --- | --- | --- | --- | --- | --- | --- | --- |
| COc1ccc(-c2onc(-c3ccc([N+](=O)[O-])cc3)c2C2=NCCN2)cc1 | 17 µM (inactive) | > 100 µM (inactive) | > 100 µM (inactive) | > 100 µM (inactive) | > 100 µM (inactive) | > 100 µM (inactive) | > 10 µM (inactive) | 60.1 µM (inactive) | > 100 µM (inactive) | > 100 µM (inactive) | > 100 µM (inactive) | 72.3 µM (inactive) | > 100 µM (inactive) | > 100 µM (inactive) | 50.5 µM (inactive) | > 100 µM (inactive) | – | – | – | – |
| Clc1ccc(-c2c3nc(c(-c4ccc(Cl)cc4)c4ccc([nH]4)c(-c4ccc(Cl)cc4)c4nc(c(-c5ccc(Cl)cc5)c5ccc2[nH]5)C=C4)C=C3)cc1 | > 100 µM (inactive) | > 100 µM (inactive) | > 100 µM (inactive) | > 100 µM (inactive) | > 100 µM (inactive) | > 100 µM (inactive) | > 100 µM (inactive) | > 100 µM (inactive) | > 100 µM (inactive) | > 100 µM (inactive) | > 100 µM (inactive) | > 100 µM (inactive) | > 100 µM (inactive) | > 100 µM (inactive) | > 100 µM (inactive) | > 100 µM (inactive) | > 100 µM (inactive) | > 100 µM (inactive) | > 100 µM (inactive) | – |
| COc1c2c(cc3c1C(=O)Cc1ccc4c(c1CN(C)CC3)OCO4)OCO2 | > 100 µM (inactive) | 70.5 µM (inactive) | 43.1 µM (inactive) | 18.5 µM (inactive) | 28.8 µM (inactive) | 74.3 µM (inactive) | > 100 µM (inactive) | 75.5 µM (inactive) | 29.3 µM (inactive) | > 100 µM (inactive) | 85.3 µM (inactive) | > 100 µM (inactive) | > 100 µM (inactive) | > 100 µM (inactive) | > 100 µM (inactive) | > 100 µM (inactive) | – | – | – | – |
| O=[N+]([O-])C(=C(c1ccccc1)c1ccccc1)[N+](=O)[O-] | 14.5 µM (inactive) | 2.93 µM (inactive) | 12.4 µM (inactive) | 5.96 µM (inactive) | 20.5 µM (inactive) | 11.9 µM (inactive) | 15.4 µM (inactive) | 14.5 µM (inactive) | 19.9 µM (inactive) | 9.86 µM (inactive) | 2.45 µM (inactive) | 4.57 µM (inactive) | 7.98 µM (inactive) | 2.43 µM (inactive) | 15.7 µM (inactive) | 11.4 µM (inactive) | – | – | – | – |
| CC[C@](C)(O)C(=O)O[C@H]1C(=O)O[C@@H]2C[C@H]3C(C)=C[C@H](O)[C@@H](O)[C@]3(C)[C@H]3[C@@]4(O)OC[C@]32[C@@H]1[C@@H](C)[C@H]4O | – | 4.19 µM (inactive) | 32.7 µM (inactive) | 7.19 µM (inactive) | 8.3 µM (inactive) | – | 3.58 µM (inactive) | 58.6 µM (inactive) | 104 µM (inactive) | 34 µM (inactive) | 4.34 µM (inactive) | 52.5 µM (inactive) | 17.3 µM (inactive) | 37.7 µM (inactive) | 9.79 µM (inactive) | 12.4 µM (inactive) | – | > 205 µM (inactive) | – | – |
| CC(=O)Nc1ccc(OCC(O)CO)cc1 (stereo not drawn) | 25.1 µM (inactive) | 48.2 µM (inactive) | > 100 µM (inactive) | > 100 µM (inactive) | 16.8 µM (inactive) | > 100 µM (inactive) | > 100 µM (inactive) | > 100 µM (inactive) | > 100 µM (inactive) | > 100 µM (inactive) | 21.2 µM (inactive) | > 100 µM (inactive) | > 100 µM (inactive) | > 100 µM (inactive) | > 100 µM (inactive) | 8.3 µM (inactive) | – | – | – | – |
| C=CCN1CCC23c4c5ccc(O)c4OC2C(=NN=C2CCC4(O)C6Cc7ccc(O)c8c7C4(CCN6CC=C)C2O8)CCC3(O)C1C5 (stereo not drawn) | 18.3 µM (inactive) | 34.8 µM (inactive) | 19.9 µM (inactive) | > 100 µM (inactive) | 26.2 µM (inactive) | 17.8 µM (inactive) | 31 µM (inactive) | 22 µM (inactive) | 66.5 µM (inactive) | 25.6 µM (inactive) | 39.2 µM (inactive) | 53.8 µM (inactive) | 17.3 µM (inactive) | 18 µM (inactive) | 44.3 µM (inactive) | 21.4 µM (inactive) | – | – | – | – |
| Cc1cc2c(=O)c3ccc(Cl)cc3[nH]c2c(C(=O)O)c1C | > 100 µM (inactive) | > 100 µM (inactive) | > 100 µM (inactive) | > 100 µM (inactive) | > 100 µM (inactive) | > 100 µM (inactive) | 73.8 µM (inactive) | > 100 µM (inactive) | > 100 µM (inactive) | > 100 µM (inactive) | > 100 µM (inactive) | > 100 µM (inactive) | > 100 µM (inactive) | > 100 µM (inactive) | > 100 µM (inactive) | > 100 µM (inactive) | – | – | – | – |
| Cc1cc(N)c2cc(NC(=O)CCCCCCCCC(=O)Nc3ccc4nc(C)cc(N)c4c3)ccc2n1 | 28.2 µM (inactive) | 10.7 µM (inactive) | 18.1 µM (inactive) | > 30.5 µM (inactive) | 16.9 µM (inactive) | > 84.9 µM (inactive) | 1.98 µM (inactive) | > 100 µM (inactive) | > 56 µM (inactive) | > 100 µM (inactive) | 5.53 µM (inactive) | 29.6 µM (inactive) | 42.8 µM (inactive) | > 100 µM (inactive) | > 38.4 µM (inactive) | 27.9 µM (inactive) | – | – | – | – |
| O=C(Sc1c(-c2ccccc2)c(=O)n(-c2ccccc2)c(=S)n1-c1ccccc1)c1ccc(Cl)cc1 | > 100 µM (inactive) | 32.5 µM (inactive) | > 100 µM (inactive) | 63 µM (inactive) | 75 µM (inactive) | > 100 µM (inactive) | 81.5 µM (inactive) | > 100 µM (inactive) | > 100 µM (inactive) | > 100 µM (inactive) | – | > 100 µM (inactive) | > 100 µM (inactive) | – | > 100 µM (inactive) | > 100 µM (inactive) | > 100 µM (inactive) | > 100 µM (inactive) | – | > 100 µM (inactive) |
| Cc1cc2nc3c(C#N)c(-c4ccccc4)cc(Nc4ccc(Cl)cc4)n3c2cc1C | > 100 µM (inactive) | 4.53 µM (inactive) | > 100 µM (inactive) | – | – | > 100 µM (inactive) | 9.57 µM (inactive) | > 100 µM (inactive) | > 100 µM (inactive) | 48.2 µM (inactive) | 5.6 µM (inactive) | 51.6 µM (inactive) | > 100 µM (inactive) | > 100 µM (inactive) | > 100 µM (inactive) | > 100 µM (inactive) | > 100 µM (inactive) | > 100 µM (inactive) | > 100 µM (inactive) | – |
| CCC(C)CCOC(=O)c1ccc(/N=C\c2ccc(/C=N/c3ccc(C(=O)OCCC(C)CC)cc3)cc2)cc1 (stereo not drawn) | > 100 µM (inactive) | > 100 µM (inactive) | > 100 µM (inactive) | > 100 µM (inactive) | > 100 µM (inactive) | > 100 µM (inactive) | > 100 µM (inactive) | > 100 µM (inactive) | > 100 µM (inactive) | > 100 µM (inactive) | > 100 µM (inactive) | > 100 µM (inactive) | > 100 µM (inactive) | > 100 µM (inactive) | > 100 µM (inactive) | > 100 µM (inactive) | – | – | – | – |
| O=C(c1cccs1)N(C(=O)N1CCC(c2ccccc2)CC1)c1ccccc1 | > 100 µM (inactive) | 95.5 µM (inactive) | 27.2 µM (inactive) | 14.7 µM (inactive) | 22.7 µM (inactive) | 40.6 µM (inactive) | – | – | > 100 µM (inactive) | 39.4 µM (inactive) | 12.6 µM (inactive) | 73.6 µM (inactive) | 43.9 µM (inactive) | 13.8 µM (inactive) | > 100 µM (inactive) | 51.5 µM (inactive) | 29.4 µM (inactive) | 24.8 µM (inactive) | 0.873 µM (active) | > 100 µM (inactive) |
| Cc1ccc(S(N)(C(=O)Nc2cccc3ccccc23)[N+](=O)[O-])cc1 (stereo not drawn) | – | 42.3 µM (inactive) | > 100 µM (inactive) | > 100 µM (inactive) | 55 µM (inactive) | > 100 µM (inactive) | – | > 100 µM (inactive) | > 100 µM (inactive) | > 100 µM (inactive) | 48.6 µM (inactive) | – | > 100 µM (inactive) | > 100 µM (inactive) | 92.5 µM (inactive) | > 100 µM (inactive) | > 100 µM (inactive) | > 100 µM (inactive) | 50.4 µM (inactive) | 68.2 µM (inactive) |
| C=CC1=CC(C)C[C@]1(O)C(=O)OC (stereo partly drawn) | < 0.01 µM (active) | < 0.01 µM (active) | < 0.01 µM (active) | < 0.01 µM (active) | < 0.01 µM (active) | < 0.01 µM (active) | > 100 µM (inactive) | < 0.01 µM (active) | < 0.01 µM (active) | < 0.01 µM (active) | < 0.01 µM (active) | < 0.01 µM (active) | < 0.01 µM (active) | < 0.01 µM (active) | < 0.01 µM (active) | 38.5 µM (inactive) | – | – | – | – |
| O=C(CCN(CCO)CCO)Nc1ccc2c(c1)C(=O)c1ccc(NC(=O)CCN(CCO)CCO)cc1C2=O | 4.62 µM (inactive) | 6.52 µM (inactive) | 10.7 µM (inactive) | 13.7 µM (inactive) | 18.5 µM (inactive) | 12.4 µM (inactive) | 5.89 µM (inactive) | 20 µM (inactive) | > 100 µM (inactive) | 14 µM (inactive) | 14.6 µM (inactive) | 12.2 µM (inactive) | 15.1 µM (inactive) | 3.37 µM (inactive) | 22.5 µM (inactive) | 6.73 µM (inactive) | – | – | – | – |
